Experimental data reported in patent US20260259222A1, “METHOD OF DIAGNOSING WOUNDS” (TRAUMA CARE CONSULT TRAUMATOLOGISCHE FORSCHUNG …, priority 2022, published 2026).

Assays:
[1] = tested on: p-rpS6 in human dermal fibroblasts (HDFs); assay: in vitro scratch assay, p-rpS6-positive cells (immunofluorescence); assay type: cell-based; details: HDFs in basal medium; pre-treatment 10 to 30 min prior to scratch with 20 nM rapamycin or 10 μM U0126; fixed 30 min after scratch; vs DMSO
Protocol: (§1) To model a skin wound in vitro, cell cultures were subjected to a damage assay to monitor cellular response mechanisms. Commercially available human dermal fibroblasts (HDFs) were cultured in HDF medium (DMEM/F12 (Sigma Aldrich), 10% fetal bovine serum (Sigma Aldrich) and 4 mM L-Glutamine (Gibco)), subcultivated at 90% confluency and used for experiments below passage 15. Immortalised human keratinocytes (HaCaT) were maintained in HACAT medium (DMEM high glucose (Sigma Aldrich), 10% fetal bovine serum (Sigma Aldrich) and 2 mM L-Glutamine (Gibco) and subcultivated at 60% confluency. All cell culture experiments were performed in a humidified incubator at 37° C. and 5% CO2. […]
(§2) For immunofluorescence staining, the coverslips containing damaged and control cells were permeabilized using 0.5% Triton X100 for 5 min, washed three times with PBS for 5 min each, and blocked using PBS with 5% goat serum (VECS-1000, Vector Laboratories) for 1 h. […] For quantification of rpS6 and Erk phosphorylation, ten images per slide were taken along the scratch using an inverted microscope Nikon (Nikon Corporation, Tokyo, Japan) with set exposure times. These images were processed and quantified for total cell count and activated cell count (p-rpS6 or p-ERK positive cells) using set thresholds and particle analysis in Fiji. […]

[2] = tested on: p-Erk in human dermal fibroblasts (HDFs); assay: in vitro scratch assay, p-Erk-positive cells (immunofluorescence); assay type: cell-based; details: HDFs in basal medium; pre-treatment 10 to 30 min prior to scratch with 20 nM rapamycin or 10 μM U0126; fixed 30 min after scratch; vs DMSO
Protocol: as §1, §2

N#CC(=C(/N)Sc1ccccc1N)/C(C#N)=C(\N)Sc1ccccc1N [U0126]
effect on p-rpS6 induction (number of cells positive for p-rpS6) in the scratch assay [1]: no significant effect on rpS6 phosphorylation
effect on Erk phosphorylation (number of cells positive for p-Erk) in the scratch assay [2]: almost completely abrogating p-Erk-positive cells
